ChEMBL document CHEMBL1201862, “PubChem BioAssay data set” (2004)
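48-hour exposure; five concentrations; linearly interpolated endpoints. GI50: concentration for 50% inhibition of growth.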 Calls of active or inactive are those of the source. Cut-off read from the data, not from the text of the source: active = GI50 up to about 1.1 µM and inactive = higher.

Experiments:
Test in all cases: NCI-60 cell line screen, 48 h
MDA-MB-435 = system: MDA-MB-435
SK-MEL-5 = system: SK-MEL-5
MDA-MB-231 = system: MDA-MB-231
OVCAR-5 = system: OVCAR-5
UO-31 = system: UO-31
HCC 2998 = system: HCC 2998
NCI/ADR-RES = system: NCI/ADR-RES
HOP-62 = system: HOP-62
SNB-75 = system: SNB-75
HOP-92 = system: HOP-92
SF-539 = system: SF-539
IGROV-1 = system: IGROV-1
LOX IMVI = system: LOX IMVI
HL-60 = system: HL-60
HCT-116 = system: HCT-116
KM12 = system: KM12
HT-29 = system: HT-29
NCI-H522 = system: NCI-H522
CAKI-1 = system: CAKI-1
UACC-62 = system: UACC-62

| Structure (SMILES) | GI50 (MDA-MB-435) | GI50 (SK-MEL-5) | GI50 (MDA-MB-231) | GI50 (OVCAR-5) | GI50 (UO-31) | GI50 (HCC 2998) | GI50 (NCI/ADR-RES) | GI50 (HOP-62) | GI50 (SNB-75) | GI50 (HOP-92) | GI50 (SF-539) | GI50 (IGROV-1) | GI50 (LOX IMVI) | GI50 (HL-60) | GI50 (HCT-116) | GI50 (KM12) | GI50 (HT-29) | GI50 (NCI-H522) | GI50 (CAKI-1) | GI50 (UACC-62) |
| --- | --- | --- | --- | --- | --- | --- | --- | --- | --- | --- | --- | --- | --- | --- | --- | --- | --- | --- | --- | --- |
| O=C(NCc1ccccc1)c1c(O)nc2ccccc2c1O | > 100 µM (inactive) | > 100 µM (inactive) | > 100 µM (inactive) | > 100 µM (inactive) | > 100 µM (inactive) | > 100 µM (inactive) | > 100 µM (inactive) | > 100 µM (inactive) | > 100 µM (inactive) | > 100 µM (inactive) | > 100 µM (inactive) | > 100 µM (inactive) | > 100 µM (inactive) | > 100 µM (inactive) | > 100 µM (inactive) | > 100 µM (inactive) | > 100 µM (inactive) | > 100 µM (inactive) | > 100 µM (inactive) |  |
| CSc1ccc(/C=C/c2ccnc3ccccc23)cc1 | 3.69 µM (inactive) | 6.08 µM (inactive) | 17 µM (inactive) | 17.7 µM (inactive) | 11.8 µM (inactive) | 13.9 µM (inactive) | 9.73 µM (inactive) | 20.3 µM (inactive) | 20.4 µM (inactive) | 16.4 µM (inactive) | 17.6 µM (inactive) | 16.4 µM (inactive) | 12.7 µM (inactive) | 3.97 µM (inactive) | 10.5 µM (inactive) | 20.3 µM (inactive) | 14 µM (inactive) | 12.5 µM (inactive) |  |  |
| Cn1c(=O)c(C(=O)Nc2nc(C34CC5CC(CC(C5)C3)C4)cs2)c(O)c2ccccc21 | > 100 µM (inactive) | > 100 µM (inactive) | 70 µM (inactive) | > 100 µM (inactive) | > 100 µM (inactive) | > 100 µM (inactive) | 13.2 µM (inactive) | 10.7 µM (inactive) | 56.1 µM (inactive) | 18.2 µM (inactive) | > 100 µM (inactive) | 77.3 µM (inactive) | > 100 µM (inactive) | 86.9 µM (inactive) | > 100 µM (inactive) | > 100 µM (inactive) | > 100 µM (inactive) | 55.3 µM (inactive) | 73.5 µM (inactive) |  |
| Cc1cc2c(c3c1c1ccccc1n3C)C(=O)C=CC2=O | 28.8 µM (inactive) | 32.3 µM (inactive) | 25.7 µM (inactive) | 43.7 µM (inactive) | 16.1 µM (inactive) | 33 µM (inactive) | 35.8 µM (inactive) | 44.1 µM (inactive) | 41.6 µM (inactive) | 12.9 µM (inactive) | 23.8 µM (inactive) | 39.6 µM (inactive) | 16.9 µM (inactive) | 1.45 µM (inactive) | 18.8 µM (inactive) | 25.2 µM (inactive) | 31 µM (inactive) | 13.9 µM (inactive) | 23.2 µM (inactive) | 19.6 µM (inactive) |
| CC1(C)CC(=O)c2c(-c3ccc(Cl)cc3)c(C#N)c(=S)n(C3OC(CO)C(O)C(O)C3O)c2C1 (stereo not drawn) | 27.9 µM (inactive) | 15.2 µM (inactive) | 33.5 µM (inactive) | > 100 µM (inactive) | 29.6 µM (inactive) | 36.7 µM (inactive) | 34.4 µM (inactive) | 69.5 µM (inactive) | 25.3 µM (inactive) | 21.2 µM (inactive) | 25.4 µM (inactive) | 56.8 µM (inactive) | 20.1 µM (inactive) | 20.2 µM (inactive) | 16 µM (inactive) | 37.3 µM (inactive) | 26.7 µM (inactive) | 35 µM (inactive) | 78.7 µM (inactive) | 16.8 µM (inactive) |
| Cc1ccc(/C=C/C(=N/NC(=O)N/N=C(/C=C/c2ccc(C)cc2)C(C)(C)CN2CCCCC2)C(C)(C)CN2CCCCC2)cc1 | 1.45 µM (inactive) | 1.67 µM (inactive) | 1.79 µM (inactive) | 2.16 µM (inactive) | 0.813 µM (active) | 1.77 µM (inactive) | 1.64 µM (inactive) | 1.65 µM (inactive) | 1.46 µM (inactive) | 1.51 µM (inactive) | 1.77 µM (inactive) | 1.98 µM (inactive) | 1.16 µM (inactive) | 1.63 µM (inactive) | 1.34 µM (inactive) | 1.64 µM (inactive) | 0.757 µM (active) | 1.63 µM (inactive) | 2.31 µM (inactive) | 2.3 µM (inactive) |
| COC(=O)CCc1ccc2c(c1)CC1(Cc3ccccc3C1)C2 | > 100 µM (inactive) | 33.6 µM (inactive) | > 100 µM (inactive) | > 100 µM (inactive) | > 100 µM (inactive) | > 100 µM (inactive) | > 100 µM (inactive) | > 100 µM (inactive) | < 0.01 µM (active) | 97.5 µM (inactive) | > 100 µM (inactive) | > 100 µM (inactive) | > 100 µM (inactive) | 51.9 µM (inactive) | 95.1 µM (inactive) | > 100 µM (inactive) | > 100 µM (inactive) | 74 µM (inactive) |  | 57.3 µM (inactive) |
| Cc1cn(C2CC(N=[N+]=[N-])C(CO)O2)c(=O)n(CCCCO)c1=O (stereo not drawn) | > 100 µM (inactive) |  | > 100 µM (inactive) | > 100 µM (inactive) | > 100 µM (inactive) | > 100 µM (inactive) | > 100 µM (inactive) | > 100 µM (inactive) | 88.3 µM (inactive) | > 100 µM (inactive) | > 100 µM (inactive) | > 100 µM (inactive) | > 100 µM (inactive) | > 100 µM (inactive) | > 100 µM (inactive) | > 100 µM (inactive) | > 100 µM (inactive) | > 100 µM (inactive) | > 100 µM (inactive) | > 100 µM (inactive) |
| Cc1ccc(-c2c(C#N)c(N)[nH]c(=S)c2C#N)cc1 | 23.3 µM (inactive) | 23.4 µM (inactive) | 34.8 µM (inactive) | > 100 µM (inactive) | 40.3 µM (inactive) | 26.7 µM (inactive) | 31.7 µM (inactive) | 55 µM (inactive) |  | 31.4 µM (inactive) | > 100 µM (inactive) | 43.3 µM (inactive) | 42.2 µM (inactive) | 17.3 µM (inactive) | 32.4 µM (inactive) | 40.8 µM (inactive) | 48.2 µM (inactive) | 19.4 µM (inactive) | 49.8 µM (inactive) | 35.4 µM (inactive) |
| C/C=C1/CN2CCC34C5=CC(=O)C(c6cc7c(cc6OC)N(C)C6=C(C(=O)OC)CC8(CC)CCCN9CCC67C98)=CC5=NC23CCC1C4C(=O)OC (stereo not drawn) | 13 µM (inactive) | 15.2 µM (inactive) | 10.2 µM (inactive) | 12.2 µM (inactive) | 12.1 µM (inactive) | 15.7 µM (inactive) | 18.8 µM (inactive) | 16.8 µM (inactive) | 8.11 µM (inactive) | 7.85 µM (inactive) | 14.6 µM (inactive) | 17.9 µM (inactive) | 16.7 µM (inactive) | 1.93 µM (inactive) | 10.9 µM (inactive) | 16.4 µM (inactive) | 14.2 µM (inactive) | 11.1 µM (inactive) | 9.51 µM (inactive) | 16.6 µM (inactive) |
